According to PubChem BioAssay (NCI):
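Assay format: 96-well plates, 48-hour exposure. TGI is the concentration that stops growth completely.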

Assays:
Assay in all cases: growth of human tumour cells (NCI), 48 h
[1] = test system: 786-0 renal
[2] = test system: A498 renal
[3] = test system: A549 NSCLC
[4] = test system: ACHN renal
[5] = test system: BT-549 breast
[6] = test system: CAKI-1 renal
[7] = test system: CCRF-CEM leukemia
[8] = test system: COLO 205 colon
[9] = test system: DU-145 prostate
[10] = test system: EKVX NSCLC
[11] = test system: HCC-2998 colon
[12] = test system: HCT-116 colon
[13] = test system: HCT-15 colon
[14] = test system: HL-60(TB) leukemia
[15] = test system: HOP-62 NSCLC
[16] = test system: HOP-92 NSCLC
[17] = test system: HS 578T breast
[18] = test system: HT29 colon
[19] = test system: IGROV1 ovarian
[20] = test system: KM12 colon
[21] = test system: LOX IMVI melanoma
[22] = test system: M14 melanoma
[23] = test system: MALME-3M melanoma
[24] = test system: MCF7 breast
[25] = test system: MDA-MB-231 breast
[26] = test system: MDA-MB-435
[27] = test system: MDA-N
[28] = test system: MOLT-4 leukemia
[29] = test system: NCI-H226 lung
[30] = test system: NCI-H23 lung
[31] = test system: NCI-H460 lung
[32] = test system: NCI-H522 lung
[33] = test system: NCI/ADR-RES ovarian
[34] = test system: OVCAR-3 ovarian
[35] = test system: OVCAR-4 ovarian
[36] = test system: OVCAR-5 ovarian
[37] = test system: OVCAR-8 ovarian
[38] = test system: PC-3 prostate
[39] = test system: RPMI-8226 leukemia
[40] = test system: RXF 393 renal
[41] = test system: SF-268 CNS
[42] = test system: SF-295 CNS
[43] = test system: SF-539 CNS
[44] = test system: SK-MEL-2 melanoma
[45] = test system: SK-MEL-28 melanoma
[46] = test system: SK-MEL-5 melanoma
[47] = test system: SK-OV-3 ovarian
[48] = test system: SN12C renal
[49] = test system: SNB-19 CNS
[50] = test system: SR leukemia
[51] = test system: SW-620 colon
[52] = test system: T-47D breast
[53] = test system: TK-10 renal
[54] = test system: U251 CNS
[55] = test system: UACC-257 melanoma
[56] = test system: UACC-62 melanoma
[57] = test system: K-562 leukemia

SMILES: CN(C)/C=C(\C(=O)c1ccccc1)n1nc(-c2ccccc2)cc1-c1ccccc1
- TGI [1]: > 10 µM
- TGI [2]: > 10 µM
- TGI [3]: > 10 µM
- TGI [4]: > 10 µM
- TGI [5]: > 10 µM
- TGI [6]: > 10 µM
- TGI [7]: > 10 µM
- TGI [8]: > 10 µM
- TGI [9]: > 10 µM
- TGI [10]: > 10 µM
- TGI [11]: > 10 µM
- TGI [12]: > 10 µM
- TGI [13]: > 10 µM
- TGI [14]: > 10 µM
- TGI [15]: > 10 µM
- TGI [16]: > 10 µM
- TGI [17]: > 10 µM
- TGI [18]: > 10 µM
- TGI [19]: > 10 µM
- TGI [20]: > 10 µM
- TGI [21]: > 10 µM
- TGI [22]: > 10 µM
- TGI [23]: > 10 µM
- TGI [24]: > 10 µM
- TGI [25]: > 10 µM
- TGI [26]: > 10 µM
- TGI [27]: > 10 µM
- TGI [28]: > 10 µM
- TGI [29]: > 10 µM
- TGI [30]: > 10 µM
- TGI [31]: > 10 µM
- TGI [32]: > 10 µM
- TGI [33]: > 10 µM
- TGI [34]: > 10 µM
- TGI [35]: > 10 µM
- TGI [36]: > 10 µM
- TGI [37]: > 10 µM
- TGI [38]: > 10 µM
- TGI [39]: > 10 µM
- TGI [40]: > 10 µM
- TGI [41]: > 10 µM
- TGI [42]: > 10 µM
- TGI [43]: > 10 µM
- TGI [44]: > 10 µM
- TGI [45]: > 10 µM
- TGI [46]: > 10 µM
- TGI [47]: > 10 µM
- TGI [48]: > 10 µM
- TGI [49]: > 10 µM
- TGI [50]: > 10 µM
- TGI [51]: > 10 µM
- TGI [52]: > 10 µM
- TGI [53]: > 10 µM
- TGI [54]: > 10 µM
- TGI [55]: > 10 µM
- TGI [56]: > 10 µM

SMILES: Cc1cccc(NC(=O)CCl)c1
- TGI [1]: > 10 µM
- TGI [2]: > 10 µM
- TGI [3]: > 10 µM
- TGI [4]: > 10 µM
- TGI [5]: > 10 µM
- TGI [6]: > 10 µM
- TGI [7]: 8.83 µM
- TGI [8]: > 10 µM
- TGI [9]: > 10 µM
- TGI [10]: > 10 µM
- TGI [11]: > 10 µM
- TGI [12]: > 10 µM
- TGI [13]: > 10 µM
- TGI [14]: > 10 µM
- TGI [15]: > 10 µM
- TGI [17]: > 10 µM
- TGI [18]: > 10 µM
- TGI [19]: > 10 µM
- TGI [57]: > 10 µM
- TGI [20]: > 10 µM
- TGI [21]: > 10 µM
- TGI [22]: > 10 µM
- TGI [23]: > 10 µM
- TGI [24]: > 10 µM
- TGI [25]: > 10 µM
- TGI [26]: > 10 µM
- TGI [27]: > 10 µM
- TGI [28]: > 10 µM
- TGI [29]: > 10 µM
- TGI [30]: > 10 µM
- TGI [31]: > 10 µM
- TGI [32]: 4.32 µM
- TGI [33]: > 10 µM
- TGI [34]: > 10 µM
- TGI [35]: 8.18 µM
- TGI [36]: > 10 µM
- TGI [37]: > 10 µM
- TGI [38]: > 10 µM
- TGI [39]: > 10 µM
- TGI [40]: > 10 µM
- TGI [41]: > 10 µM
- TGI [42]: > 10 µM
- TGI [43]: > 10 µM
- TGI [44]: > 10 µM
- TGI [45]: > 10 µM
- TGI [46]: > 10 µM
- TGI [47]: > 10 µM
- TGI [48]: > 10 µM
- TGI [49]: > 10 µM
- TGI [50]: > 10 µM
- TGI [51]: > 10 µM
- TGI [52]: > 10 µM
- TGI [53]: > 10 µM
- TGI [54]: 5.64 µM
- TGI [55]: > 10 µM
- TGI [56]: > 10 µM
